Assay results published in ChEMBL document CHEMBL1150918, “Phospholipase Cgamma1 inhibitory principles from the sarcotestas of Ginkgo biloba” (J Nat Prod, 1998).
In brackets after ≈: the same amount, converted by molar mass.

What was measured:
MCF7 = assay: Growth inhibition of human MCF7 cells after 2 days by SRB assay; type: functional, cell-based; details: MCF7, 48 h
[1] = molecular target: T1, 1-phosphatidylinositol 4,5-bisphosphate phosphodiesterase gamma-1 (Bos taurus, UniProt P08487); assay: Inhibition of bovine brain PI-PLCgamma1
T1 sequence (P08487 whole entry): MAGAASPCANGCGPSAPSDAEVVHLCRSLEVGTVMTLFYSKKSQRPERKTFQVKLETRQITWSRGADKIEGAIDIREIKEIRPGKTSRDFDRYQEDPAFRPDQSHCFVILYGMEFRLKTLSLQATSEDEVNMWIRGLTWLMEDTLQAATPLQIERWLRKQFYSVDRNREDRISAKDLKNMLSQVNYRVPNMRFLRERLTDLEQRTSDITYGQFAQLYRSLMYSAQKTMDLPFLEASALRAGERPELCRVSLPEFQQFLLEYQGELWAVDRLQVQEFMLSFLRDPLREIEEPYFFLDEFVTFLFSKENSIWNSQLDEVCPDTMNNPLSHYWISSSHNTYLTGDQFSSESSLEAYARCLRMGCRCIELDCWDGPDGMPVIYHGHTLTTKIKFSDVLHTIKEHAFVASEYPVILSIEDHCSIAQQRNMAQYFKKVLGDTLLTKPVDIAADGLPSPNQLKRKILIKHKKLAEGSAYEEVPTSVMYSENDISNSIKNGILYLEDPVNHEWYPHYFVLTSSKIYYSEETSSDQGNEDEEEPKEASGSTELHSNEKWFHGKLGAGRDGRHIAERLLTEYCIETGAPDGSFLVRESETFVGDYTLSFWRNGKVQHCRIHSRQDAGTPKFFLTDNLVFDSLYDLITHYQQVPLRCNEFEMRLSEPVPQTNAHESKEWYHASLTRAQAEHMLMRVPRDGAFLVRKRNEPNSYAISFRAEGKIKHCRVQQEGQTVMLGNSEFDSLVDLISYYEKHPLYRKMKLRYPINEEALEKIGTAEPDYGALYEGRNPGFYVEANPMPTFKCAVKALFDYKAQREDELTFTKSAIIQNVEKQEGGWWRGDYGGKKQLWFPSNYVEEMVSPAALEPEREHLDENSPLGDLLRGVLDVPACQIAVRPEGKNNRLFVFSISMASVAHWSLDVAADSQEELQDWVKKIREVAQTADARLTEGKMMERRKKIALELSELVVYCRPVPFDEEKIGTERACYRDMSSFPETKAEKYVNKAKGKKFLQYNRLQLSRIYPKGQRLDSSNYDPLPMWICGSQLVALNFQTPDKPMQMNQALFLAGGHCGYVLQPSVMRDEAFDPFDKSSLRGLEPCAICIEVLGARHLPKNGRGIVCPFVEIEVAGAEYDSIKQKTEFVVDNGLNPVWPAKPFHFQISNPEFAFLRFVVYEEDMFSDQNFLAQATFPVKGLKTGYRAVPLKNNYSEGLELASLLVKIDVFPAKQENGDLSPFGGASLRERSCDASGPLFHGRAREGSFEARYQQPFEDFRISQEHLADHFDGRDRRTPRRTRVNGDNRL

HT1197 = assay: Growth inhibition of human HT1197 cells after 2 days by SRB assay; type: functional, cell-based; details: HT1197, 48 h
A549 = assay: Growth inhibition of human A549 cells after 2 days by SRB assay; type: functional, cell-based; details: A549, 48 h
HCT-15 = assay: Growth inhibition of human HCT15 cells after 2 days by SRB assay; type: functional, cell-based; details: HCT-15, 48 h
[2] = Growth inhibition of human CCD-18Co cells after 2 days by SRB assay; type: cell-based; details: 48 h
SK-OV-3 = assay: Growth inhibition of human SKOV3 cells after 2 days by SRB assay; type: functional, cell-based; details: SK-OV-3, 48 h
[3] = Inhibition of pig brain PI-PLCgamma1; parameters: species or system Sus scrofa
[4] = molecular target: T2, 1-phosphatidylinositol 4,5-bisphosphate phosphodiesterase gamma-1 (Rattus norvegicus, UniProt P10686); assay: Inhibition of rat brain PI-PLCgamma1
T2 sequence (P10686 whole entry): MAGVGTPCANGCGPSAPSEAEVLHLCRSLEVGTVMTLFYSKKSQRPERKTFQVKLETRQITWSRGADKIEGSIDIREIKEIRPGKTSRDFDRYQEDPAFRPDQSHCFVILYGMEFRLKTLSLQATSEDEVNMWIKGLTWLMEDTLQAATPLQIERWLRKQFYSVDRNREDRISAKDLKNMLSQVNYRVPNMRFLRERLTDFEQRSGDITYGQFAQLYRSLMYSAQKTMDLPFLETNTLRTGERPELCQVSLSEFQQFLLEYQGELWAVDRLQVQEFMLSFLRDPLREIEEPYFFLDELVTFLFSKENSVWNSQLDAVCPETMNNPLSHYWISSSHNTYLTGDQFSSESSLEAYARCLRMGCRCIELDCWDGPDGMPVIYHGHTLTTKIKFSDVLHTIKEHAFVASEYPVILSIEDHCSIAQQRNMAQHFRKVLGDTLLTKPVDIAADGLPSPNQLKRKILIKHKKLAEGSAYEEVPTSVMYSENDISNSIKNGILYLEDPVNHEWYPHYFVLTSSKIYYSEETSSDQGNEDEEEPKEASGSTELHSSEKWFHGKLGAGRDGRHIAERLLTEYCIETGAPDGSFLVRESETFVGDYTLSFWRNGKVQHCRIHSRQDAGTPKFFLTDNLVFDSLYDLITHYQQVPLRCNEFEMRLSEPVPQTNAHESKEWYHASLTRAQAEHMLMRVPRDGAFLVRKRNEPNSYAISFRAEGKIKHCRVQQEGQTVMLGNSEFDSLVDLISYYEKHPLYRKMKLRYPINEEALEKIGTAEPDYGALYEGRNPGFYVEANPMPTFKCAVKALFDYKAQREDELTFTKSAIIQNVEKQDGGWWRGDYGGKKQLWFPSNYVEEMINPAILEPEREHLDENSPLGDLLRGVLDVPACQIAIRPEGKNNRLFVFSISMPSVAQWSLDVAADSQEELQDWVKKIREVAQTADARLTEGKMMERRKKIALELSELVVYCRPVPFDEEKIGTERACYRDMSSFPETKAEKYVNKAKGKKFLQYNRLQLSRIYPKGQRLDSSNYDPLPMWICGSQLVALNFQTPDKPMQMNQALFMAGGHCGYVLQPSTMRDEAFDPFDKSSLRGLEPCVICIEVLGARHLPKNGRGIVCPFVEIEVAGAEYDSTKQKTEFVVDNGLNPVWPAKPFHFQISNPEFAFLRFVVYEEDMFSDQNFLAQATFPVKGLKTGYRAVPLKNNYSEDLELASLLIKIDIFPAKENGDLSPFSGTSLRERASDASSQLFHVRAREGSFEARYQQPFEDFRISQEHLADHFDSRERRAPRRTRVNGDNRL

Compound: CCCCCCCCCCCCCCCc1cccc(O)c1
- IC50 (MCF7): 8.71 µg/mL (≈ 28.6 µM)
- IC50 [1]: 58 µM
- IC50 (HT1197): 41.8 µg/mL (≈ 137 µM)
- IC50 (A549): 11.9 µg/mL (≈ 39.1 µM)
- IC50 (HCT-15): 31.9 µg/mL (≈ 105 µM)

Compound: CCCCCCCCCCCCCc1cccc(O)c1
- IC50 (MCF7): 7.04 µg/mL (≈ 25.5 µM)
- IC50 [1]: 57.8 µM
- IC50 (HT1197): 14.6 µg/mL (≈ 52.7 µM)
- IC50 (A549): 25.9 µg/mL (≈ 93.7 µM)
- IC50 [2]: 73.2 µg/mL (≈ 265 µM)
- IC50 (HCT-15): 29.7 µg/mL (≈ 107 µM)
- IC50 (SK-OV-3): > 50 µg/mL

Compound: CCCCCCCCCCCCCc1cc(O)cc(O)c1
- IC50 (MCF7): 1.91 µg/mL (≈ 6.53 µM)
- IC50 [1]: 72.3 µM
- IC50 (HT1197): 2.2 µg/mL (≈ 7.52 µM)
- IC50 (A549): > 50 µg/mL
- IC50 [2]: > 100 µg/mL
- IC50 (HCT-15): 15.3 µg/mL (≈ 52.4 µM)
- IC50 (SK-OV-3): > 50 µg/mL

Compound: CCCCCC/C=C\CCCCCCCCCc1cccc(O)c1
- IC50 (MCF7): 7.19 µg/mL (≈ 21.8 µM)
- IC50 [1]: 9.73 µM
- IC50 (HT1197): 20.8 µg/mL (≈ 63 µM)
- IC50 (A549): 11.8 µg/mL (≈ 35.7 µM)
- IC50 [2]: 66.4 µg/mL (≈ 201 µM)
- IC50 (HCT-15): 32.9 µg/mL (≈ 99.5 µM)

Compound: CCCCCC/C=C\CCCCCCCCCc1cc(O)cc(O)c1
- IC50 [1]: 30.6 µM

Compound: CCCCCC/C=C\CCCCCCCc1cccc(O)c1C(=O)OC
- IC50 [1]: > 693 µM

Compound: CCCCCC/C=C\CCCCCCCc1cccc(OC(C)=O)c1C(=O)OC
- IC50 [1]: > 621 µM

Compound: CCCCCC/C=C\CCCCCCCc1cc(OC(C)=O)cc(OC(C)=O)c1
- IC50 [1]: > 621 µM

Compound: CCCCCC/C=C\CCCCCCCc1cccc(OC(C)=O)c1
- IC50 [1]: > 726 µM

Compound: O=c1cc(-c2ccc(O)c(-c3c(O)cc(O)c4c(=O)cc(-c5ccc(O)cc5)oc34)c2)oc2cc(O)cc(O)c12 [AMENTOFLAVONE]
- IC50 [1]: 29 µM

Compound: CC(=O)O[C@@H]1[C@H](O[C@H](CO)[C@H](O)[C@@H](O)[C@@H](OC(C)=O)C(=O)O[C@H](C)CCCCCCCCCCCCCCCc2cccc(O)c2C(=O)O)O[C@H](CO)[C@@H](O)[C@@H]1O [CALOPOROSIDE]
- IC50 [3]: 18 µM

Compound: CCCCCC/C=C\CCCCCCCc1cccc(O)c1C(=O)O [GINGKOLIC ACID]
- IC50 (MCF7): 6.44 µg/mL (≈ 18.6 µM)
- IC50 [1]: 5.66 µM
- IC50 (HT1197): 46.3 µg/mL (≈ 134 µM)
- IC50 (A549): 31.3 µg/mL (≈ 90.3 µM)
- IC50 [2]: 97.1 µg/mL (≈ 280 µM)
- IC50 (HCT-15): 12.7 µg/mL (≈ 36.7 µM)
- IC50 (SK-OV-3): > 50 µg/mL

Compound: CCCCCCCCCCCCCc1cccc(O)c1C(=O)O [GINKGOLIC ACID 13:0]
- IC50 (MCF7): 22.7 µg/mL (≈ 70.7 µM)
- IC50 [1]: 16.3 µM
- IC50 (HT1197): 44.6 µg/mL (≈ 139 µM)
- IC50 (A549): > 50 µg/mL
- IC50 [2]: 59.1 µg/mL (≈ 184 µM)
- IC50 (HCT-15): > 50 µg/mL
- IC50 (SK-OV-3): 20.4 µg/mL (≈ 63.7 µM)

Compound: CCCCCC/C=C\CCCCCCCCCc1cccc(O)c1C(=O)O [GINKGOLIC ACID 17:1]
- IC50 (MCF7): 5.06 µg/mL (≈ 13.5 µM)
- IC50 [1]: 2.22 µM
- IC50 (HT1197): 28.1 µg/mL (≈ 75.1 µM)
- IC50 (A549): 29.2 µg/mL (≈ 78 µM)
- IC50 (HCT-15): 8.39 µg/mL (≈ 22.4 µM)
- IC50 (SK-OV-3): > 50 µg/mL

Compound: C[C@@H]1CC[C@H]2[C@]13CC[C@@]1(C)O[C@]2(C)[C@@H](NCCCCN(C)CCCN(C)C)[C@H]1C3 [HISPIDOSPERMIDIN]
- IC50 [4]: 16 µM

Compound: Cc1cccc(O)c1 [METACRESOL]
- IC50 [1]: > 2310 µM

Compound: Cc1cc(O)cc(O)c1 [ORCINOL]
- IC50 [1]: > 2010 µM

Compound: O=C(O)c1ccccc1O [SALICYLIC ACID]
- IC50 [1]: 873 µM

Compound: CC(=O)c1cc2c(=O)c3c(C(=O)O)c(O)c(O)cc3oc2c(C(C)=O)c1-c1coc2cc(O)c(O)c(C(=O)O)c2c1=O [VINAXANTHONE]
- IC50 [4]: 5.4 µM
